Assay [1] deals with TRPV1+ nociceptors. Conditions: mouse, in vivo.
The test system of the next assay is skin MCs. As to the kind of experiment: In vivo two-photon microscopy of Pirt-GCaMP3 mice: degranulation of Av.SRho+ MCs. Conditions: for degranulation of Av.SRho+ MCs: mouse, in vivo. The arrangement: species or system mouse.
A further assay concerns DRG neurons. It counts as cell-based, mouse.
For assay [2], the system named is TRPV1+ nociceptors. As to conditions: mouse, in vivo. This is another data set of the same source.

Turning to `COc1cc(CNC(=O)CCCC/C=C/C(C)C)ccc1O` [capsaicin], the “GCaMP3 fluorescence levels in skin neurons” value in the assay with TRPV1+ nociceptors [1] is “strong increase”. Further, the “time by which increase in GCaMP3 fluorescence preceded degranulation of cognate Av.SRho+ MCs” value with skin MCs (i.d. 1 μM, video recorded for 60 minutes) lay in the range of 10 to 15 min. Besides, the “degranulation of Av.SRho+ MCs” value in the assay on skin MCs was “most of Av.SRho^+ MCs exhibited a degranulated phenotype”.
Take Staphylococcal enterotoxin B [SEB]: the “GCaMP3 fluorescence levels in skin neurons” value with TRPV1+ nociceptors [1] is “significant increase”. For the same compound, in the assay on DRG neurons, the “intracellular calcium levels in DRG neurons” value is recorded as “weak”. For the same compound, the “degranulation of Av.SRho+ MCs” value in the assay with skin MCs is “presence of adjacent degranulated Av.SRho^+ MCs”.
Turning to `C=C(C)[C@]12C[C@@H](C)[C@@]34O[C@](Cc5ccccc5)(O[C@@H]1[C@@H]3C=C(COC(=O)Cc1ccc(O)c(OC)c1)C[C@]1(O)C(=O)C(C)=C[C@@H]41)O2` [RTX, resiniferatoxin], in the assay with TRPV1+ nociceptors [2], the “expression of the stress marker K-6” value is given as “decreased”; the filaggrin organization entry is recorded as “restored”; the “skin lesions development and tested pathological features” value is given as “strong reduction”.

The record behind these values is patent publication US20220227859A1, “METHOD TO TREAT TYPE 2 INFLAMMATION OR MAST-CELL DEPENDENT DISEASE” (INSERM (INSTITUT NATIONAL DE LA SANTÉ ET DE LA RECHERCHE …, priority 2019, published 2022).
